Experimental data as given in patent publication US20170224692A1, “Combination Therapy” (Novartis AG, priority 2014, published 2017).
Where “and” joins values, the source holds several entries; their conditions need not be identical. Equal values may be shown once.

Legend:
Assay type in all cases: cell-based
YD-38 cells = experiment: 3 day CellTiter-Glo cell proliferation assay / dose matrix combination, YD-38
Protocol: (§1) YD-38, CAL-33 and CCK-81 cells were cultured at 37° C. in a 5% CO2 incubator using the ATCC media (YD-38, RPMI-1640; CAL-33, DMEM; CCK-81, EMEM) supplemented with 10% FBS (Thermo scientific, SH30071.03). […] L-glutamine (Invitrogen, #25030-081) was also supplemented for CAL-33 media. Cells were passaged twice a week using TryPLE Express (Invitrogen, #12604-013).
(§2) Cell viability was determined by measuring cellular ATP content using the CellTiter-Glo®(CTG) luminescent cell viability assay (Promega #G7573) according to the manufacturer's protocol. Briefly, various number of cells (6000 for CAL-33, 4200 for YD-38 and 7000 for CCK-81) were seeded in 80 μl growth media per well in clear-bottom 96-well black plates (Costar, #3904) in triplicates. Cells were allowed to attach overnight prior to 72 hours of treatment with indicated compounds (serially-diluted where applicable) and/or 75 ng/ml HGF in a volume of 100 ul for HGF rescue experiment (+20 μl compound or HGF) or 140 ul for Chalice combination experiment (+20 μl compound A+20 μl compound B+20 ul media or HGF). At the end of the drug treatment, 100 ul CTG reagent was added to each well to lyse the cells, and luminescence signals were recorded in the Envision plate reader (Perkin Elmer).
(§3) In all combination assays, compounds were applied simultaneously. […] INC280 was subjected to a 7 doses 3× serial dilution with the highest dose at 1.5 μM and the lowest dose at about […]. The synergistic interaction was analyzed using Chalice software (CombinatoRx, Cambridge Mass.). Synergy was calculated by comparing a combination's response to those of its single agents, against the drug-with-itself dose-additive reference model and reported as Synergy Score (Lehar et al., 2009).
(§4) YD-38, CAL-33 and CCK-81 cells were treated in 96-well format for 3 days with HGF alone, Panitumumab alone, Panitumumab as a singal agent and Panitumumab with INC280 in the present or absent of HGF. (FIGS. 6 and 7). Cell viability was measured using the CellTiter-Glo assay. % viability was plotted as bar graphs with mean values and standard deviations from triplicates. […] Each data point represents averaged data from 3 wells +standard deviation, and the color spectrum also represents the level of the inhibition.

CCK-81 cells = experiment: 3 day CellTiter-Glo cell proliferation assay / dose matrix combination, CCK-81
Protocol: as §1, §2, §3, §4

CAL-33 cells = experiment: 3 day CellTiter-Glo cell proliferation assay / dose matrix combination, CAL-33
Protocol: as §1, §2, §3, §4

[1] = tested on: YD-38, CAL-33 and CCK-81 cells; experiment: 3 day CellTiter-Glo proliferation / dose matrix combination, statements over all three cell lines
Protocol: Cell viability was determined by measuring cellular ATP content using the CellTiter-Glo®(CTG) luminescent cell viability assay (Promega #G7573) according to the manufacturer's protocol. Briefly, various number of cells (6000 for CAL-33, 4200 for YD-38 and 7000 for CCK-81) were seeded in 80 μl growth media per well in clear-bottom 96-well black plates (Costar, #3904) in triplicates. […] At the end of the drug treatment, 100 ul CTG reagent was added to each well to lyse the cells, and luminescence signals were recorded in the Envision plate reader (Perkin Elmer).
In all combination assays, compounds were applied simultaneously. […] The synergistic interaction was analyzed using Chalice software (CombinatoRx, Cambridge Mass.). Synergy was calculated by comparing a combination's response to those of its single agents, against the drug-with-itself dose-additive reference model and reported as Synergy Score (Lehar et al., 2009).
YD-38, CAL-33 and CCK-81 cells were treated in 96-well format for 3 days with HGF alone, Panitumumab alone, Panitumumab as a singal agent and Panitumumab with INC280 in the present or absent of HGF. […] Cell viability was measured using the CellTiter-Glo assay. % viability was plotted as bar graphs with mean values and standard deviations from triplicates. […]

[2] = addition of 75 ng/ml HGF together with antibody
[3] = INC280 single agent, dose matrix
[4] = co-treatment with 500 nM INC280, 100 nM Cetuximab, 75 ng/ml HGF

Compound: Panitumumab: fully human monoclonal antibody specific to the epidermal growth factor receptor [reference compound]
- HGF rescue of the anti-proliferation effect of the EGFR antibody (YD-38 cells; [2]): rescued
- HGF rescue of the anti-proliferation effect of the EGFR antibody (CCK-81 cells; [2]): rescued
- HGF rescue of the anti-proliferation effect of the EGFR antibody (CAL-33 cells; [2]): rescued

Compound: CNC(=O)c1ccc(-c2cnc3ncc(Cc4ccc5ncccc5c4)n3n2)cc1F [INC280, 2-fluoro-N-methyl-4-[(7-quinolin-6-yl-methyl)-imidazo[1,2-b]triazin-2-yl]benzamide]
- anti-proliferation effect, single agent ([1]; INC280 single agent, regardless of HGF addition): little or no anti-proliferation effect
- INC280 concentration that re-sensitized cells to Cetuximab ([1]; presence of HGF): 18 nM
- anti-proliferation effect, single agent (YD-38 cells; [3]): no anti-proliferation effect
- block of the HGF rescue of Cetuximab effect (YD-38 cells; [4]): completely blocked
- INC280 concentration that re-sensitized HGF-treated cells to Cetuximab (YD-38 cells; presence of HGF, dose matrix): 18 nM
- inhibition at 1.5 µM (CCK-81 cells; INC280 at 1.5 μM, presence of HGF, read-out: growth inhibition, single agent): ~20%
- block of the HGF rescue of Cetuximab effect (CCK-81 cells; [4]): fully blocked
- INC280 concentration that re-sensitized HGF-treated cells to Cetuximab (CCK-81 cells; presence of HGF, dose matrix): 18 nM
- anti-proliferation effect, single agent (CAL-33 cells; [3]): no anti-proliferation effect
- block of the HGF rescue of Cetuximab effect (CAL-33 cells; [4]): completely blocked
- INC280 concentration that re-sensitized HGF-treated cells to Cetuximab (CAL-33 cells; presence of HGF, dose matrix): 18 nM

Compound: HGF: Recombinant HGF (R&D Systems, 294-HG-005/CF), ligand activating MET [reference compound]
- growth-stimulating effect of HGF alone (YD-38 cells; 75 ng/ml HGF alone): no growth-stimulating effect
- growth-stimulating effect of HGF alone (CCK-81 cells; 75 ng/ml HGF alone): ~19% and ~20%
- growth-promoting effect by HGF alone (CAL-33 cells; 75 ng/ml HGF alone): ~16%
